Test results from patent publication US20220119354A1, “DIAMINO-SUBSTITUTED PYRIDINES AND PYRIMIDINES AS HERBICIDES” (FMC Corporation, priority 2019, published 2022).

How the values were obtained:
Assay type in all cases: in vivo
[1] = test system: sedge, umbrella (small-flower umbrella sedge, Cyperus difformis); experiment: Test B flooded paddy test, umbrella sedge; conditions: Flood, 250 g ai/ha, applied to paddy water, 2-leaf stage, visual evaluation after 13 to 15 d
Outline: (§1)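 Growth to two leaves preceded treatment. Flooding to 3 cm above soil surface, then water-applied compound; depth kept constant. Scored visually relative to controls after 13–15 d greenhouse; 100 means full control.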

[2] = test system: ryegrass, Italian (Lolium multiflorum); experiment: Test A preemergence, Italian ryegrass; conditions: 0 to 100 scale; for Ryegrass, Italian plant response rating: 0 is no effect, 100 is complete control
Outline: (§2)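 Greenhouse pot test, loam/sand soil. Pre: directed soil spray at planting; post: foliar spray at 1–2 leaf stage (2–10 cm). Chemical in non-phytotoxic solvent + surfactant. Visual rating ~10 d, 0 = no effect, 100 = complete control.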

[3] = test system: ryegrass, Italian (Lolium multiflorum); experiment: Test A postemergence, Italian ryegrass; conditions: 0 to 100 scale
Outline: as §2

[4] = test system: galium (catchweed bedstraw, Galium aparine); experiment: Test A postemergence, galium; conditions: 0 to 100 scale
Outline: as §2

[5] = test system: barnyardgrass (Echinochloa crus-galli); experiment: Test A preemergence, barnyardgrass; conditions: 0 to 100 scale; for Barnyardgrass plant response rating: 0 is no effect, 100 is complete control
Outline: as §2

rice (Oryza sativa) = experiment: Test B flooded paddy test, rice; conditions: Flood, 250 g ai/ha, applied to paddy water, 2-leaf stage, visual evaluation after 13 to 15 d
Outline: as §1

[6] = test system: pigweed (Amaranthus retroflexus); experiment: Test A preemergence, pigweed; conditions: 0 to 100 scale; for Pigweed plant response rating: 0 is no effect, 100 is complete control
Outline: as §2

[7] = test system: wheat (Triticum aestivum); experiment: Test A postemergence, wheat; conditions: 0 to 100 scale
Outline: as §2

[8] = test system: barnyardgrass (Echinochloa crus-galli); experiment: Test A postemergence, barnyardgrass; conditions: 0 to 100 scale
Outline: as §2

[9] = test system: pigweed (Amaranthus retroflexus); experiment: Test A postemergence, pigweed; conditions: 0 to 100 scale
Outline: as §2

[10] = test system: ragweed (common ragweed, Ambrosia elatior); experiment: Test A postemergence, ragweed; conditions: 0 to 100 scale
Outline: as §2

kochia (Kochia scoparia) [11] = experiment: Test A preemergence, kochia; conditions: 0 to 100 scale; for Kochia plant response rating: 0 is no effect, 100 is complete control
Outline: as §2

[12] = test system: blackgrass (Alopecurus myosuroides); experiment: Test A postemergence, blackgrass; conditions: 0 to 100 scale
Outline: as §2

[13] = test system: barnyardgrass (Echinochloa crus-galli); experiment: Test B flooded paddy test, barnyardgrass; conditions: Flood, 250 g ai/ha, applied to paddy water, 2-leaf stage, visual evaluation after 13 to 15 d
Outline: as §1

[14] = test system: foxtail, giant (Setaria faberii); experiment: Test A preemergence, giant foxtail; conditions: 0 to 100 scale; for Foxtail, Giant plant response rating: 0 is no effect, 100 is complete control
Outline: as §2

kochia (Kochia scoparia) [15] = experiment: Test A postemergence, kochia; conditions: 0 to 100 scale
Outline: as §2

[16] = test system: ragweed (common ragweed, Ambrosia elatior); experiment: Test A preemergence, ragweed; conditions: 0 to 100 scale; for Ragweed plant response rating: 0 is no effect, 100 is complete control
Outline: as §2

[17] = test system: ducksalad (Heteranthera limosa); experiment: Test B flooded paddy test, ducksalad; conditions: Flood, 250 g ai/ha, applied to paddy water, 2-leaf stage, visual evaluation after 13 to 15 d
Outline: as §1

corn (Zea mays) = experiment: Test A postemergence, corn; conditions: 0 to 100 scale
Outline: as §2

[18] = test system: foxtail, giant (Setaria faberii); experiment: Test A postemergence, giant foxtail; conditions: 0 to 100 scale
Outline: as §2

[19] = 125 g ai/ha, 0 no effect, 100 complete control
[20] = 500 g ai/ha, 0 no effect, 100 complete control

Nc1nc(NC(c2cc3ccccc3o2)C2CC2)ncc1C(F)(F)F (stereo not drawn) [Compound 89]
Plant response rating, Sedge, Umbrella (0 to 100 scale, 0 is no effect, 100 is complete control) [1]: 95
Ryegrass, Italian plant response rating ([2]; 125 g ai/ha): 0
Ryegrass, Italian plant response rating ([2]; 500 g ai/ha): 0
Plant response rating, Ryegrass, Italian [3, 19]: 0
Plant response rating, Ryegrass, Italian [3, 20]: 0
Plant response rating, Galium [4, 19]: 0
Plant response rating, Galium [4, 20]: 0
Barnyardgrass plant response rating ([5]; 125 g ai/ha): 0
Barnyardgrass plant response rating ([5]; 500 g ai/ha): 0
Plant response rating, Rice (0 to 100 scale, 0 is no effect, 100 is complete control) (rice (Oryza sativa)): 0
Pigweed plant response rating ([6]; 125 g ai/ha): 0
Pigweed plant response rating ([6]; 500 g ai/ha): 0
Plant response rating, Wheat [7, 19]: 0
Plant response rating, Wheat [7, 20]: 0
Plant response rating, Barnyardgrass [8, 19]: 0
Plant response rating, Barnyardgrass [8, 20]: 0
Plant response rating, Pigweed [9, 19]: 0
Plant response rating, Pigweed [9, 20]: 0
Plant response rating, Ragweed [10, 19]: 0
Plant response rating, Ragweed [10, 20]: 0
Kochia plant response rating (kochia (Kochia scoparia) [11]; 125 g ai/ha): 0
Kochia plant response rating (kochia (Kochia scoparia) [11]; 500 g ai/ha): 0
Plant response rating, Blackgrass [12, 19]: 0
Plant response rating, Blackgrass [12, 20]: 0
Plant response rating, Barnyardgrass (0 to 100 scale, 0 is no effect, 100 is complete control) [13]: 30
Foxtail, Giant plant response rating ([14]; 125 g ai/ha): 0
Foxtail, Giant plant response rating ([14]; 500 g ai/ha): 0
Plant response rating, Kochia (kochia (Kochia scoparia) [15]; [19]): 0
Plant response rating, Kochia (kochia (Kochia scoparia) [15]; [20]): 0
Ragweed plant response rating ([16]; 125 g ai/ha): 0
Ragweed plant response rating ([16]; 500 g ai/ha): 20
Plant response rating, Ducksalad (0 to 100 scale, 0 is no effect, 100 is complete control) [17]: 30
Plant response rating, Corn (corn (Zea mays); [19]): 0
Plant response rating, Corn (corn (Zea mays); [20]): 0
Plant response rating, Foxtail, Giant [18, 19]: 0
Plant response rating, Foxtail, Giant [18, 20]: 0

Cc1cccc(OCC(C)Nc2ncc(C(F)(F)F)c(N)n2)c1 (stereo not drawn) [Compound 32]
Plant response rating, Sedge, Umbrella (0 to 100 scale, 0 is no effect, 100 is complete control) [1]: 0
Ryegrass, Italian plant response rating ([2]; 125 g ai/ha): 0
Plant response rating, Ryegrass, Italian ([2]; 500 g ai/ha): 0
Plant response rating, Ryegrass, Italian ([3]; 125 g ai/ha): 0
Plant response rating, Ryegrass, Italian ([3]; 500 g ai/ha): 0
Plant response rating, Galium ([4]; 125 g ai/ha): 60
Plant response rating, Galium ([4]; 500 g ai/ha): 70
Barnyardgrass plant response rating ([5]; 125 g ai/ha): 0
Plant response rating, Barnyardgrass ([5]; 500 g ai/ha): 90
Plant response rating, Rice (0 to 100 scale, 0 is no effect, 100 is complete control) (rice (Oryza sativa)): 0
Pigweed plant response rating ([6]; 125 g ai/ha): 10
Plant response rating, Pigweed ([6]; 500 g ai/ha): 60
Plant response rating, Wheat ([7]; 125 g ai/ha): 0
Plant response rating, Wheat ([7]; 500 g ai/ha): 0
Plant response rating, Barnyardgrass ([8]; 125 g ai/ha): 0
Plant response rating, Barnyardgrass ([8]; 500 g ai/ha): 20
Plant response rating, Pigweed ([9]; 125 g ai/ha): 30
Plant response rating, Pigweed ([9]; 500 g ai/ha): 60
Plant response rating, Ragweed ([10]; 125 g ai/ha): 0
Plant response rating, Ragweed ([10]; 500 g ai/ha): 40
Kochia plant response rating (kochia (Kochia scoparia) [11]; 125 g ai/ha): 0
Plant response rating, Kochia (kochia (Kochia scoparia) [11]; 500 g ai/ha): 30
Plant response rating, Blackgrass ([12]; 125 g ai/ha): 0
Plant response rating, Blackgrass ([12]; 500 g ai/ha): 0
Plant response rating, Barnyardgrass (0 to 100 scale, 0 is no effect, 100 is complete control) [13]: 0
Foxtail, Giant plant response rating ([14]; 125 g ai/ha): 20
Plant response rating, Foxtail, Giant ([14]; 500 g ai/ha): 80
Plant response rating, Kochia (kochia (Kochia scoparia) [15]; 125 g ai/ha): 20
Plant response rating, Kochia (kochia (Kochia scoparia) [15]; 500 g ai/ha): 60
Ragweed plant response rating ([16]; 125 g ai/ha): 0
Plant response rating, Ragweed ([16]; 500 g ai/ha): 100
Plant response rating, Ducksalad (0 to 100 scale, 0 is no effect, 100 is complete control) [17]: 0
Plant response rating, Corn (corn (Zea mays); 125 g ai/ha): 0
Plant response rating, Corn (corn (Zea mays); 500 g ai/ha): 0
Plant response rating, Foxtail, Giant ([18]; 125 g ai/ha): 0
Plant response rating, Foxtail, Giant ([18]; 500 g ai/ha): 40

CCc1ccc2oc([C@@H](C)Nc3ncc(C(F)(F)F)c(N)n3)cc2c1 [Compound 17]
Plant response rating, Sedge, Umbrella (0 to 100 scale, 0 is no effect, 100 is complete control) [1]: 0
Plant response rating, Ryegrass, Italian ([2]; 125 g ai/ha): 0
Plant response rating, Ryegrass, Italian ([2]; 500 g ai/ha): 20
Plant response rating, Ryegrass, Italian ([3]; 125 g ai/ha): 0
Plant response rating, Ryegrass, Italian ([3]; 500 g ai/ha): 0
Plant response rating, Galium ([4]; 125 g ai/ha): 0
Plant response rating, Galium ([4]; 500 g ai/ha): 0
Plant response rating, Barnyardgrass ([5]; 125 g ai/ha): 0
Plant response rating, Barnyardgrass ([5]; 500 g ai/ha): 0
Plant response rating, Rice (0 to 100 scale, 0 is no effect, 100 is complete control) (rice (Oryza sativa)): 0
Plant response rating, Pigweed ([6]; 125 g ai/ha): 0
Plant response rating, Pigweed ([6]; 500 g ai/ha): 0
Plant response rating, Wheat ([7]; 125 g ai/ha): 0
Plant response rating, Wheat ([7]; 500 g ai/ha): 0
Plant response rating, Barnyardgrass ([8]; 125 g ai/ha): 0
Plant response rating, Barnyardgrass ([8]; 500 g ai/ha): 0
Plant response rating, Pigweed ([9]; 125 g ai/ha): 0
Plant response rating, Pigweed ([9]; 500 g ai/ha): 20
Plant response rating, Ragweed ([10]; 125 g ai/ha): 0
Plant response rating, Ragweed ([10]; 500 g ai/ha): 20
Plant response rating, Kochia (kochia (Kochia scoparia) [11]; 125 g ai/ha): 0
Plant response rating, Kochia (kochia (Kochia scoparia) [11]; 500 g ai/ha): 0
Plant response rating, Blackgrass ([12]; 125 g ai/ha): 0
Plant response rating, Blackgrass ([12]; 500 g ai/ha): 0
Plant response rating, Barnyardgrass (0 to 100 scale, 0 is no effect, 100 is complete control) [13]: 0
Plant response rating, Foxtail, Giant ([14]; 125 g ai/ha): 0
Plant response rating, Foxtail, Giant ([14]; 500 g ai/ha): 20
Plant response rating, Kochia (kochia (Kochia scoparia) [15]; 125 g ai/ha): 0
Plant response rating, Kochia (kochia (Kochia scoparia) [15]; 500 g ai/ha): 0
Plant response rating, Ragweed ([16]; 125 g ai/ha): 0
Plant response rating, Ragweed ([16]; 500 g ai/ha): 50
Plant response rating, Ducksalad (0 to 100 scale, 0 is no effect, 100 is complete control) [17]: 0
Plant response rating, Corn (corn (Zea mays); 125 g ai/ha): 0
Plant response rating, Corn (corn (Zea mays); 500 g ai/ha): 0
Plant response rating, Foxtail, Giant ([18]; 125 g ai/ha): 20
Plant response rating, Foxtail, Giant ([18]; 500 g ai/ha): 20
